Source: PubChem BioAssay (NCI)
Several values for one entry are separate records, joined by “and”; a condition that tells them apart may be missing. Equal entries are not always repeated.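 Five compound concentrations were applied to cells in 96-well plates for 48 hours; endpoints were derived by simple linear interpolation of the resulting dose-response curve. The concentration for 50% growth inhibition is given as GI50. TGI denotes the concentration required for complete inhibition of growth.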

tested on: MDA-MB-468 breast; test: NCI tumour cell line growth inhibition, 48 h

Question: With `COc1ccc(-c2cn(-c3ccccc3)c(-c3ccccc3)n2)cc1OC` as the molecule, how does the GI50 read?
Answer: The GI50 was 4.9 µM.

Question: And the TGI?
Answer: Its TGI is 21.9 µM.

Question: Which results are given for `CC(=O)Oc1ccccc1C(=O)Nc1cc(C(C)C)ccc1C`?
Answer: GI50: 2.49 µM; TGI: 8.38 µM

Question: For `C#CC[C@@H]1C[C@]2(C)[C@H]3CC=C4[C@H]5CC(C)(C)CC[C@]5(C(=O)NCCCCN)CC[C@@]4(C)[C@]3(C)CC[C@H]2C(C)(C)[C@H]1OC(C)=O`, which GI50 is on record?
Answer: Its GI50 is 1.71 µM.

Question: What about the TGI of the same molecule?
Answer: Its TGI is 3.27 µM.

Question: For `Oc1ccc(CCCCCCc2ccc(O)cc2)cc1`, which GI50 is on record?
Answer: Its GI50 is 12.7 µM.

Question: What about the TGI of the same molecule?
Answer: The TGI was 32.9 µM.

Question: For `COc1cc(Nc2nc(N[C@H]3CCCC[C@@H]3N)nc3cc[nH]c(=O)c23)cc(OC)c1`, which GI50 is on record?
Answer: The GI50 was 0.26 µM.

Question: What about the TGI of the same molecule?
Answer: The TGI was 0.854 µM.

Question: With `Cc1cc(C(C#N)c2ccc(Cl)cc2)c(Cl)cc1NC(=O)c1cc(I)cc(I)c1O` (stereo not given) as the molecule, how does the GI50 read?
Answer: Its GI50 is 4.31 µM and 15.3 µM.

Question: What about the TGI of the same molecule?
Answer: The TGI was 18 µM and 30 µM.

Question: What does the source list for `Fc1ccc2[nH]c3c(NCCCN4CCOCC4)ncnc3c2c1`?
Answer: GI50: 20.4 µM; TGI: > 100 µM

Question: For `C[C@H]1[C@H](C)CC[C@]2(C(=O)O)CC[C@]3(C)C(=CC[C@@H]4[C@@]5(C)C/C(=C/c6cccnc6)[C@H](O)C(C)(C)[C@@H]5CC[C@]43C)[C@H]12`, which GI50 is on record?
Answer: Its GI50 is 19.8 µM.

Question: What about the TGI of the same molecule?
Answer: Its TGI is 80.1 µM.

Question: `CC(C)(C)c1ccc(S(=O)(=O)N[C@H]2CC[C@H]3[C@@H]4CCc5cc(OS(=O)(=O)O)ccc5[C@H]4CC[C@]23C)cc1` was tested. Which GI50 did it give?
Answer: Its GI50 is 2.05 µM.

Question: And the TGI?
Answer: Its TGI is 5.59 µM.

Question: `O=C(CCl)N1c2ccccc2Sc2c1ccc1ccccc21` was tested. Which GI50 did it give?
Answer: Its GI50 is 2.09 µM.

Question: What about the TGI of the same molecule?
Answer: Its TGI is 3.95 µM.

Question: How did the GI50 turn out when `c1n[nH]cc1-c1nc2ccc3[nH]ncc3c2c2c1CCCC2` was run?
Answer: The GI50 was 1.36 µM.

Question: What about the TGI of the same molecule?
Answer: Its TGI is 3.6 µM.

Question: `CSc1ccc(/C=C2\N=C(c3ccccc3)N(c3nc4ccc(Sc5ccccc5)cc4[nH]3)C2=O)cc1` was tested. Which GI50 did it give?
Answer: Its GI50 is 4.44 µM.

Question: And the TGI?
Answer: Its TGI is 25.8 µM.

Question: Which results are given for `Fc1cccc(COc2ccc(Nc3ncnc4cc(-c5ccc[nH]5)sc34)cc2Cl)c1`?
Answer: GI50: 0.0446 µM; TGI: 0.306 µM

Question: How did the GI50 turn out when `CCCCN(Cc1ccc(F)cc1)c1ccc(CO)c(Cl)c1` was run?
Answer: Its GI50 is 0.167 µM.

Question: What about the TGI of the same molecule?
Answer: The TGI was 0.449 µM.

Question: Which results are given for `O=C1/C(=C/c2ccc(O)cc2)COc2ccc(-c3ccccc3)cc21`?
Answer: GI50: 3.32 µM; TGI: 11.4 µM

Question: How did the GI50 turn out when `Cn1ccnc1C(=O)/C=C/c1ccc(CC(=O)Nc2ccccc2)cc1` was run?
Answer: The GI50 was 1.71 µM.

Question: What about the TGI of the same molecule?
Answer: Its TGI is 7.11 µM.

Question: Which GI50 does the source give for `COC(=O)CNC(=O)[C@@H](OC)[C@@H]1Cc2cc3cc(OC4CC(OC5CC(O)C(O)C(C)O5)C(O)C(C)O4)c(C)c(O)c3c(O)c2C(=O)[C@H]1OC1CC(OC2CC(OC3CC(C)(O)C(O)C(C)O3)C(O)C(C)O2)C(O)C(C)O1` (stereo not given in full) here?
Answer: The GI50 was 0.162 µM.

Question: And the TGI?
Answer: The TGI was 1.31 µM.

Question: With `c1cnc2[nH]cc(-c3csc(-c4cn(CCCCN5CCOCC5)c5ccccc45)n3)c2c1` as the molecule, how does the GI50 read?
Answer: The GI50 was 2.07 µM.

Question: What about the TGI of the same molecule?
Answer: The TGI was 3.99 µM.

Question: For `Cc1nc2sc(C(=O)Nc3ccccc3)c(N)c2cc1C(=O)/C=C/c1ccccc1`, which GI50 is on record?
Answer: Its GI50 is 1.73 µM.

Question: What about the TGI of the same molecule?
Answer: The TGI was 3.82 µM.

Question: For `CCN(Cc1ccccc1OC)c1ccc(CO)c(Cl)c1`, which GI50 is on record?
Answer: The GI50 was 0.0372 µM.

Question: And the TGI?
Answer: The TGI was 0.214 µM.

Question: What does the source list for `ClCc1c(Cl)c(Cl)c(Cl)c(CCl)c1Cl`?
Answer: GI50: 1.57 µM; TGI: 3.11 µM

Question: `OCc1ccc(-c2nn(Cc3ccccc3)c3ccccc23)o1` was tested. Which GI50 did it give?
Answer: The GI50 was 0.11 µM.

Question: What about the TGI of the same molecule?
Answer: The TGI was 0.287 µM.

Question: For `CNC(=O)c1cc(N2CCc3cc(NC(=O)Nc4ccc(N5CCOCC5)c(C(F)(F)F)c4)ccc32)ccn1`, which GI50 is on record?
Answer: Its GI50 is 5.22 µM.

Question: What about the TGI of the same molecule?
Answer: The TGI was greater than 33.3 µM.

Question: `C[C@@H]1COCCN1c1cc(C2(S(C)(=N)=O)CC2)nc(-c2ccnc3[nH]ccc23)n1` (stereo not given in full) was tested. Which GI50 did it give?
Answer: Its GI50 is 3.92 µM.

Question: And the TGI?
Answer: The TGI was 25 µM.

Question: What does the source list for `CC(=C(c1ccc(OCCN(C)C)cc1)c1ccc(OCCN(C)C)cc1)c1ccc(Cl)cc1`?
Answer: GI50: 0.827 µM; TGI: 3.24 µM

Question: Which results are given for `CN(CCOc1ccc(C#N)cc1)CCOc1ccc(C#N)cc1`?
Answer: GI50: 27.5 µM; TGI: > 100 µM

Question: Which results are given for `C=C1CC[C@@H]2[C@](C)(COC(C)=O)[C@H](OC(C)=O)CC[C@@]2(C)[C@@H]1CC(Nc1ccc(S(=O)(=O)Nc2nccc(C)n2)cc1)C1=CCOC1=O` (stereo not given in full)?
Answer: GI50: 1.99 µM; TGI: 4.31 µM

Question: For `CC1OC2CC(=O)OC2C2=C1C(=O)c1c(O)c3c(c(O)c1C2=O)C1CC(O)C3(O)C(C)O1` (stereo not given), which GI50 is on record?
Answer: The GI50 was 0.229 µM.

Question: What about the TGI of the same molecule?
Answer: The TGI was 0.618 µM.

Question: With `C=C1C(=O)O[C@H]2[C@H]1CC/C(COC(=O)N1CCC[C@H]1C(=O)Nc1ccc(OC)c(C(N)=O)c1O)=C\CC[C@@]1(C)O[C@@H]21` as the molecule, how does the GI50 read?
Answer: The GI50 was 1.06 µM.

Question: And the TGI?
Answer: The TGI was 3.46 µM.

Question: Which GI50 does the source give for `CN(C)c1ccc(/C=C/C=C(/C#N)c2ccccc2)cc1` here?
Answer: Its GI50 is 17.5 µM.

Question: And the TGI?
Answer: Its TGI is 67.7 µM.

Question: `CCCCCCCCCCCC[n+]1ccc(CCCCCCCCC)cc1` was tested. Which GI50 did it give?
Answer: The GI50 was 0.253 µM.

Question: What about the TGI of the same molecule?
Answer: The TGI was 0.833 µM.

Question: What does the source list for `COc1cc[nH]c1/C=C1\C(=O)Nc2ccc(F)c(I)c21`?
Answer: GI50: > 5.39 µM; TGI: > 25 µM

Question: How did the GI50 turn out when `CC(=O)OCC1OC(n2ccc(=O)[nH]c2=O)C(OC(C)=O)C1OC(C)=O` (stereo not given) was run?
Answer: Its GI50 is greater than 100 µM.

Question: And the TGI?
Answer: The TGI was greater than 100 µM.

Question: What does the source list for `CN(C)c1ccc2cc(-c3ccccc3F)c(N)nc2c1`?
Answer: GI50: 0.542 µM; TGI: 12.2 µM

Question: What does the source list for `CC[C@H](CC#N)OC(=O)N[C@@H](C)c1cccc(NC(=O)Nc2ccc(-c3cnco3)c(OC)c2)c1`?
Answer: GI50: 0.531 µM; TGI: 18.2 µM

Question: What does the source list for `CC(=O)O[C@@H]1CC2C(C)(C)CCCC2(C)C2=C1C(=O)C(C(C)C)=CC2=O` (stereo not given in full)?
Answer: GI50: 1.54 µM; TGI: 3.81 µM

Question: How did the GI50 turn out when `Nc1cc(N)c(N)cc1N` was run?
Answer: The GI50 was 1.8 µM.

Question: And the TGI?
Answer: Its TGI is 4.48 µM.

Question: With `CN(C)C(=S)N=Nc1c(O)[nH]c2ccccc12` as the molecule, how does the GI50 read?
Answer: The GI50 was 0.482 µM.

Question: What about the TGI of the same molecule?
Answer: Its TGI is 3.46 µM.

Question: With `CC(CNC(Cc1ccccc1)c1ccccc1)NC(Cc1ccccc1)c1ccccc1` (stereo not given) as the molecule, how does the GI50 read?
Answer: The GI50 was 1.74 µM.

Question: And the TGI?
Answer: The TGI was 3.67 µM.

Question: How did the GI50 turn out when `C[C@@H]1CN(CC(=O)N2CC(C)(C)c3nc(CO)c(Cc4ccc(F)cc4)cc32)[C@@H](CN2CCOC[C@H]2C)CN1` was run?
Answer: The GI50 was 10.9 µM.

Question: What about the TGI of the same molecule?
Answer: Its TGI is 27.9 µM.
